Drawing on US9487529B2, “Macrocyclic compounds as ALK, FAK and JAK2 inhibitors” (Cephalon, Inc., priority 2011, dated 2016), this text covers IC50 and ring closure, yield of all isomers for twelve molecules.

The target of series [1] is T1, human insulin receptor cytoplasmic domain (βIRCD) (Homo sapiens, UniProt P06213).
T1 construct: human insulin receptor cytoplasmic domain (βIRCD); host or cells: baculovirus expression system
Briefly: Insulin Receptor Kinase Assay (TRF). Format: biochemical. Particulars: 20 μM ATP, read-out: IR IC50. Here is the method:
Example compounds were tested for their ability to inhibit the kinase activity of baculovirus-expressed human insulin receptor cytoplasmic domain (βIRCD) using the TRF assay as described above for ALK. Phosphorylation of the substrate, recombinant GST-PLC-γ, was detected with a europium-labeled anti-phosphotyrosine antibody and measured by TRF. Each 96-well plate (Greiner#655074) was coated with 100 μL/well of 20 μg/mL substrate solution in TBS. The IR assay mixture (total volume=100 μL/well) consisting of 20 mM HEPES (pH 7.2), 20 μM ATP, 5 mM MnCl2, 0.1% BSA, and test compound (diluted in DMSO; 2.5% DMSO final in assay) was added to the assay plates. Enzyme (20 ng/mL βIRCD) was added and the reaction was allowed to proceed at room temperature for 20 minutes. Detection of the phosphorylated product was performed by adding 100 μL/well of Eu—N1 labeled PY100 antibody (PerkinElmer#AD0160; diluted 1:10,000 in TBS-T containing 0.25% BSA). Incubation at 37° C. for 1 hour was followed by addition of 50 μL enhancement solution (Wallace#1244-105). Plates were agitated for 10 minutes and the fluorescence was measured using the PerkinElmer EnVision™ 2102 or 2104 multi-label plate reader.
(§1) Data analysis was performed using ActivityBase (IDBS, Guilford, UK). IC50 values were calculated by plotting percent inhibition versus log10 of the concentration of compound and fitting to the nonlinear regression sigmoidal dose-response (variable slope) equation in XLFit (IDBS, Guilford, UK).

The target of series [2] is T2, baculovirus-expressed ALK (Homo sapiens, UniProt Q9UM73).
T2 construct: host or cells: baculovirus expression system
Put plainly: ALK Kinase Assay (ELISA/TRF). Format: biochemical. Particulars: 1 μM ATP (Km level). Here is the method:
Briefly, each 96-well plate was coated with 100 μL/well of 10 μg/mL substrate (GST-PLC-γ) in Tris-buffered saline (TBS). […] The reaction was initiated by adding enzyme (30 ng/mL ALK) and was allowed to proceed at 37° C. for 15 minutes. Detection of the phosphorylated product was performed by adding 100 μL/well of Eu—N1 labeled PT66 antibody (Perkin Elmer #AD0041). […] Data analysis was performed using ActivityBase (IDBS, Guilford, UK). IC50 values were calculated by plotting percent inhibition versus log10 of the concentration of compound and fitting to the nonlinear regression sigmoidal dose-response (variable slope) equation in XLFit (IDBS, Guilford, UK).

A further series addresses T3, recombinant human FAK (Homo sapiens, UniProt Q05397).
T3 construct: purchased Invitrogen PV3832; host or cells: baculovirus expression system
Briefly: FAK Enzyme Assay (TRF detection). To be noted: 10 μM ATP. Format: biochemical. As to the method: Example compounds were tested for their ability to inhibit the kinase activity of baculovirus-expressed recombinant human FAK using the TRF detection system as described above for JAK2. IC50 runs were performed in 96-well Costar high binding plates (#3922). The plates were coated first with 100 μL/well of 10 μg/mL neutravidin in TBS at 37° C. for 2 h, followed by 100 μL/well of 1 μg/mL 15-mer peptide substrate (biotinyl-amino-hexanoyl-EQEDEPEGDYFEWLE-amide) at 37° C. for another hour. The FAK assay mixture (total volume=100 μL/well) consisting of 20 mM HEPES, pH 7.2, 10 μM ATP, 5 mM MgCl2, 0.5 mM DTT, 0.1% BSA, and test compound (diluted in DMSO; 2.5% DMSO final in assay) was then added to the assay plate. Enzyme (10 ng/mL FAK, Invitrogen #PV3832) was added and the reaction was allowed to proceed at room temperature for 30 minutes. Detection of the phosphorylated product was performed by adding 100 μL/well of Eu—N1 labeled PY100 antibody (diluted 1:75000 in antibody dilution buffer). Samples were incubated at room temperature for 1 hour, followed by addition of 100 μL enhancement solution. Plates were agitated for 10 minutes and fluorescence of the resulting solution measured using the PerkinElmer EnVision™ 2102 (or 2104) multi-label plate reader.
as §1

Series [3] has as its target T4, baculovirus-expressed JAK2 (Homo sapiens, UniProt O60674).
T4 construct: host or cells: baculovirus expression system
Put plainly: JAK2 Kinase Assay (TRF detection). It counts as biochemical. Particulars: 0.2 μM ATP; average of two or more determinations; class symbols. As to the method:
Compounds were tested for their ability to inhibit the kinase activity of baculovirus-expressed JAK2 using the TRF detection system. IC50 runs were conducted in 96-well Costar high binding plates (Corning Costar #3922, Corning, N.Y.). The plates were coated first with 100 μL/well of 10 μg/mL Neutravidin (Pierce #31000, Rockford, Ill.) in TBS at 37° C. for 2 hours, followed by 100 μL/well of 1 μg/mL 15-mer peptide substrate (biotinyl-amino-hexanoyl-EQEDEPEGDYFEWLE-amide, Infinity Biotech Research and Resource, Aston, Pa.) at 37° C. for another hour. The JAK2 assay mixture (total volume=100 μL/well) consisting of 20 mM HEPES, pH 7.2, 0.2 μM ATP, 1 mM MnCl2, 0.1% BSA, and test compound (diluted in DMSO; 2.5% DMSO final in assay) was then added to the assay plate. Enzyme (15 ng/ml JAK2) was added and the reaction was allowed to proceed at room temperature for 20 minutes. Detection of the phosphorylated product was performed by adding 100 μL/well of Eu—N1 labeled PY100 antibody (PerkinElmer Life Sciences #AD0041, Boston, Mass.). Incubation at the room temperature then proceeded for 1 hour, followed by addition of 100 μl enhancement solution (PerkinElmer Life Sciences #1244-105, Boston, Mass.). The plate was gently agitated and after thirty minutes, the fluorescence of the resulting solution was measured using the PerkinElmer EnVision™ 2102 (or 2104) multi-label plate reader.
as §1

For series [4] the following is noted: cc_pd bond, Pd(OAc)2 / tri-o-tolylphosphine, Et3N, CH3CN, 120.0 °C.
The mark [5] stands for this setting: average of two or more determinations, class symbols.

The structures appear in SMILES notation. Counter-ions that a name gives are not always drawn. Like-named read-outs stand apart in the source and are kept apart here.

T3 sequence (Q05397 whole entry): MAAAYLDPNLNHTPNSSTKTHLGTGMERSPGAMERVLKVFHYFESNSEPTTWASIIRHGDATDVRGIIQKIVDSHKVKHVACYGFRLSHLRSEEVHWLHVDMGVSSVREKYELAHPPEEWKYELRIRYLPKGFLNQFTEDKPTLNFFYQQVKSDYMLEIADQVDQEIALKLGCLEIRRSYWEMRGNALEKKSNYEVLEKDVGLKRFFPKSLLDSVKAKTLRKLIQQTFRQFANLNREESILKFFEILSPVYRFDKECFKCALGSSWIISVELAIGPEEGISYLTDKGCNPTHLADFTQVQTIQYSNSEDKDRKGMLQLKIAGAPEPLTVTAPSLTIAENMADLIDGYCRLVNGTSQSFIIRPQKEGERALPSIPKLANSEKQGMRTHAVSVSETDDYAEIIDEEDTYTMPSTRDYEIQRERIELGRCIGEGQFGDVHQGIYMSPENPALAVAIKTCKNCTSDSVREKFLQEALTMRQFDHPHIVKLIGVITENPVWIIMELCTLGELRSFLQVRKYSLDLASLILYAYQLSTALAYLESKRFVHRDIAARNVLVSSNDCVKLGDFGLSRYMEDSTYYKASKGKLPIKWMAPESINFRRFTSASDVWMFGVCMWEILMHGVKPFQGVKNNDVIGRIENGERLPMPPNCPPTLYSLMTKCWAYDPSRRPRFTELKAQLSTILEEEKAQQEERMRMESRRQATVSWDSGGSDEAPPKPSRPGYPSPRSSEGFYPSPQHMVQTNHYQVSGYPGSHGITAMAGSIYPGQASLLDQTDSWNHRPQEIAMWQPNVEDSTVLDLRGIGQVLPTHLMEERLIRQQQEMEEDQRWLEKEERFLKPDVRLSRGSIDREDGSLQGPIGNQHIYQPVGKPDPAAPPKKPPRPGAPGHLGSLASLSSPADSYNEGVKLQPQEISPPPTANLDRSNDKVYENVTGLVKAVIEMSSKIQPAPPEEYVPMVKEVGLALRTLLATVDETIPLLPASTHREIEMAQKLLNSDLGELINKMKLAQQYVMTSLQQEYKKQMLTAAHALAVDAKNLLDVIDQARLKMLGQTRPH
T4 sequence (O60674 whole entry): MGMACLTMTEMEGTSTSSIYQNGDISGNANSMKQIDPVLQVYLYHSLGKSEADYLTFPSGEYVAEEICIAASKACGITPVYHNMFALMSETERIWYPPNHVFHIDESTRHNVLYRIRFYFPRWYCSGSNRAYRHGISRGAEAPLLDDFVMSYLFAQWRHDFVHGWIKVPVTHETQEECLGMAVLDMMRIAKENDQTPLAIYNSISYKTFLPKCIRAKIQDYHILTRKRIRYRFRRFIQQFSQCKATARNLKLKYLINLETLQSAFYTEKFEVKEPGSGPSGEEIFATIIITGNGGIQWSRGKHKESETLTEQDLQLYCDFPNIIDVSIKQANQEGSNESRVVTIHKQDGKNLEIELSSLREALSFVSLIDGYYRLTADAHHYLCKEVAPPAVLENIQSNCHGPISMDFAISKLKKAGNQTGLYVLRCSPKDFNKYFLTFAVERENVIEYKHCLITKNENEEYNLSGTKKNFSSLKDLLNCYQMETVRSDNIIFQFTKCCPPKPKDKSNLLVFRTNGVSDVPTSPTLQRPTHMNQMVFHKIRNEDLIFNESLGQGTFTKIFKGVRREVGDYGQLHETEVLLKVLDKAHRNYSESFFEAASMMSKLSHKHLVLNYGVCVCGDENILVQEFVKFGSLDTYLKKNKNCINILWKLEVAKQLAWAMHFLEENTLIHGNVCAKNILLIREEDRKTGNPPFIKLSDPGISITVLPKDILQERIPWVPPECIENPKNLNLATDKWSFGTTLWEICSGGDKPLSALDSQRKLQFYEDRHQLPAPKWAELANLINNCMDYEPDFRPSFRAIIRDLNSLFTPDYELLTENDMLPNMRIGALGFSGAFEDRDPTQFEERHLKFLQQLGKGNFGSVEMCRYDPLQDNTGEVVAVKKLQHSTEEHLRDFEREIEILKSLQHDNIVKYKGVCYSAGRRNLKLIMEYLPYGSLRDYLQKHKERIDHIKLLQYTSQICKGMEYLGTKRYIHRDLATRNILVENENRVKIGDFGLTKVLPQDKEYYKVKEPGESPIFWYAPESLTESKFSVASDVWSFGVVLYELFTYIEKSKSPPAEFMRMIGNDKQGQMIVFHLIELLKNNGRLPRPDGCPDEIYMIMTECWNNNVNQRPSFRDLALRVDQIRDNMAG
T1 sequence (P06213 980-1382 limits assumed): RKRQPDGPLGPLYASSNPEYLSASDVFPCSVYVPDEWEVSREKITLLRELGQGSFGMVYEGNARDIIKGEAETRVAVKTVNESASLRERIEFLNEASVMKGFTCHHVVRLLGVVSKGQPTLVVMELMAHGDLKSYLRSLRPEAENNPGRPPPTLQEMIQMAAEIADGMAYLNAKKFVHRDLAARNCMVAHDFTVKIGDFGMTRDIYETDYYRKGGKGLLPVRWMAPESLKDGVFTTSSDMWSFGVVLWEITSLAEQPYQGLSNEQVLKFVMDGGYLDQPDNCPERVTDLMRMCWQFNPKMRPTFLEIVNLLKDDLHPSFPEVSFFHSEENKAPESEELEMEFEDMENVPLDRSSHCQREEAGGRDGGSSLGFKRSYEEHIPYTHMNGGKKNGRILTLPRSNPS
T2 sequence (Q9UM73 19-1620): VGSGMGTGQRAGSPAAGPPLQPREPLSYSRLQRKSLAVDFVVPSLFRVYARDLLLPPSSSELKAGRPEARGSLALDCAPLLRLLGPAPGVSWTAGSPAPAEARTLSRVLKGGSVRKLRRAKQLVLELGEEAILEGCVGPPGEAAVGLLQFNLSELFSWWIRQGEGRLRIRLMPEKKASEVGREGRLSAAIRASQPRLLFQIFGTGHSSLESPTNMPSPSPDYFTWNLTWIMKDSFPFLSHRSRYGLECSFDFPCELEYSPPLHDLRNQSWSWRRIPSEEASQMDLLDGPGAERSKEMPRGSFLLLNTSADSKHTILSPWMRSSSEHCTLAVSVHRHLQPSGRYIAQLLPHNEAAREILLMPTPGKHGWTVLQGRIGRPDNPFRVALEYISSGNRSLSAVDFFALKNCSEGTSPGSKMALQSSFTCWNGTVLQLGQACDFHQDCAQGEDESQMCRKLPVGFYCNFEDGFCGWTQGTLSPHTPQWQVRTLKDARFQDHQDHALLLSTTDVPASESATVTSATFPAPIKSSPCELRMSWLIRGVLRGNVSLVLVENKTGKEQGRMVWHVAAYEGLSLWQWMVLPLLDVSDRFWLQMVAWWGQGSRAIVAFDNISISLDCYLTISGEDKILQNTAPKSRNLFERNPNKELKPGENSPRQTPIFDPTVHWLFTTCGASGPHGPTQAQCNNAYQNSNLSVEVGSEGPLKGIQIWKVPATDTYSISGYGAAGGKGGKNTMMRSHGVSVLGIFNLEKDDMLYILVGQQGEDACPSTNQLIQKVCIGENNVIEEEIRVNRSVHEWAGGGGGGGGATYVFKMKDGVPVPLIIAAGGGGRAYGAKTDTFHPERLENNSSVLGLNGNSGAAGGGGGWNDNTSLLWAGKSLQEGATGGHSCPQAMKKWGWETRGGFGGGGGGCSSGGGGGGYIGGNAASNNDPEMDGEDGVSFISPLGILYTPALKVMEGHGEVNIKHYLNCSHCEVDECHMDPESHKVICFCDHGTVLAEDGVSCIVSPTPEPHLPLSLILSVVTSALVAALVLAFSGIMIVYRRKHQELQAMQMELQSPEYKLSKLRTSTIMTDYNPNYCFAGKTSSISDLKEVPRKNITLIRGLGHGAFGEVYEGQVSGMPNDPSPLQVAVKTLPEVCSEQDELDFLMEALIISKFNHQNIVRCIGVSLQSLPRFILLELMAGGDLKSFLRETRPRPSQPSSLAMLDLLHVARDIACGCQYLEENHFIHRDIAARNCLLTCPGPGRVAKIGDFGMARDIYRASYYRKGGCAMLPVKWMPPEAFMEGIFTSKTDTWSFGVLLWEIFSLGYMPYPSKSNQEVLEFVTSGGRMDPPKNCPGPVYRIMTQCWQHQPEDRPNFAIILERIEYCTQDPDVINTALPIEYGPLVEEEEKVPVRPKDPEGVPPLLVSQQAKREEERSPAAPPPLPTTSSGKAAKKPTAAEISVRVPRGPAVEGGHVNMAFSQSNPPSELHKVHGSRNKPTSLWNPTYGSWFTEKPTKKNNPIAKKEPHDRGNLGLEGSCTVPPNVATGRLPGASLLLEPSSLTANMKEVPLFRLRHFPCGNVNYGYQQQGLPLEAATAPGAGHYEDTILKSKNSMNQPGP

On to `Clc1cnc2nc1Nc1cccc(c1)CCc1cc(ccc1N1CCOCC1)N2` [Example 25, 6-Chloro-17-(morpholin-4-yl)-2,4,8,22-tetraazatetracyclo[14.3.1.1^3,7.1^9,13]docosa-1(20),3(22),4,6,9(21),10,12,16,18-nonaene], for which the IC50 in series [1] (setting [5]) is > 10000 nM; in series [2] (setting [5]) it was > 10000 nM; at recombinant human FAK (setting [5]) it was > 10000 nM; in series [3], < 10 nM.

In the case of `COc1ccc2cc1Nc1nc(ncc1Cl)Nc1ccc(N3CCOCC3)c(c1)CC2` [Example 21, 6-Chloro-10-methoxy-17-(morpholin-4-yl)-2,4,8,22-tetraazatetracyclo[14.3.1.1^3,7.1^9,13]docosa-1(20),3(22),4,6,9(21),10,12,16,18-nonaene Trifluoroacetate (1:1)], the IC50 in series [1] (setting [5]) was > 10000 nM; in series [2] (setting [5]) it was > 10000 nM; on recombinant human FAK (setting [5]), > 10000 nM; in series [3], < 10 nM.

With `CN1CCN(c2ccc3cc2/C=C\c2ccc(N(C)S(C)(=O)=O)c(c2)Nc2nc(ncc2Cl)N3)CC1` [Example 9, (14Z)-6-Chloro-10-(2-methanesulfonyl-methyl-amino)-17-(4-methylpiperazin-1-yl)-2,4,8,22-tetraazatetracyclo[14.3.1.1^3,7.1^9,13]docosa-1(20),3(22),4,6,9(21),10,12,14,16,18-decaene Trifluoroacetate (1:1)], the IC50 in series [1] (given as numeric bound) was > 2000 nM; in series [2] (setting [5]), 10 to 100 nM; at recombinant human FAK (setting [5]), < 10 nM; in series [3], < 10 nM. Further, the ring closure, yield of all isomers in series [4] (from C=Cc1cc(Nc2ncc(Cl)c(Nc3cc(Br)ccc3N(C)S(C)(=O)=O)n2)ccc1N1CCN(C)CC1, 65.0 mM, 2.75 h) was found to be 37%.

Regarding `COc1c2cc(c3c1CC[C@@H](N1CCOCC1)CC3)CCc1ccc(N(C)S(C)(=O)=O)c(c1)Nc1nc(ncc1Cl)N2` [Example 29, N-[(20S)-6-chloro-24-methoxy-20-(morpholin-4-yl)-2,4,8,27-tetraazapentacyclo[14.8.1.1^3,7.1^9,13.0^17,23]heptacosa-1(25),3(27),4,6,9(26),10,12,16,23-nonaen-10-yl]N-methylmethanesulfonamide], the concentration for half-maximal inhibition (IC50) is > 3000 nM in series [1] (given as numeric bound), 10 to 100 nM in series [2] (setting [5]), 10 to 100 nM at recombinant human FAK (setting [5]) and 101 to 1000 nM in series [3].

Consider `COc1cc(C2CCNCC2)c2cc1Nc1ncc(Cl)c(n1)Nc1cc(ccc1N(C)S(C)(=O)=O)CC2` [Example 28, 6-Chloro-10-(2-methanesulfonyl-methyl-amino)-17-(piperidin-4-yl)-19-methoxy-2,4,8,22-tetraazatetracyclo[14.3.1.1^3,7.1^9,13]docosa-1(20),3(22),4,6,9(21),10,12,16,18-nonaene Trifluoroacetate (1:1)], for which the IC50 in series [1] (setting [5]) was 101 to 1000 nM; in series [2] (setting [5]) it was < 10 nM; on recombinant human FAK (setting [5]), < 10 nM; in series [3] it was 10 to 100 nM.

As for `O[C@@H]1c2cccc(c2)Nc2nc(ncc2Cl)Nc2cccc(c2)[C@@H]1O` [Example 26, (14R,15S)-6-chloro-2,4,8,22-tetraazatetracyclo[14.3.1.1^3,7.1^9,13]docosa-1(20),3(22),4,6,9(21),10,12,16,18-nonaene-14,15-diol], the IC50 in series [1] (given as numeric bound) is > 3000 nM; in series [2] (setting [5]), 1000 to 10000 nM; at recombinant human FAK (given as numeric bound), > 1000 nM; in series [3], < 10 nM.

As for `Clc1cnc2nc1Nc1cccc(c1)/C=C\c1cc(ccc1OCCN1CCCC1)N2` [Example 22, (14Z)-6-Chloro-17-[2-(pyrrolidin-1-yl)ethoxy]-2,4,8,22-tetraazatetracyclo[14.3.1.1^3,7.1^9,13]docosa-1(20),3(22),4,6,9(21),10,12,14,16,18-decaene], the IC50 was 1000 to 10000 nM in series [1] (setting [5]), 101 to 1000 nM in series [2] (setting [5]), 101 to 1000 nM on recombinant human FAK (setting [5]) and < 10 nM in series [3].

For `COc1cc(N2CCN(C)CC2)c2cc1Nc1ncc(Cl)c(n1)Nc1cc(ccc1S(=O)(=O)C(C)C)/C=C\2`, the ring closure, yield of all isomers in series [4] (from C=Cc1ccc(S(=O)(=O)C(C)C)c(Nc2nc(Nc3cc(Br)c(N4CCN(C)CC4)cc3OC)ncc2Cl)c1, 31.3 mM, 0.25 h) was 63%.

Turning to `Clc1cnc2nc1Nc1cccc(c1)/C=C\c1cc(ccc1N1CCOCC1)N2` [Example 24, (14Z)-6-Chloro-17-(morpholin-4-yl)-2,4,8,22-tetraazatetracyclo[14.3.1.1^3,7.1^9,13]docosa-1(20),3(22),4,6,9(21),10,12,14,16,18-decaene], the IC50 was > 10000 nM in series [1] (setting [5]), > 3000 nM in series [2] (given as numeric bound), > 10000 nM at recombinant human FAK (setting [5]) and < 10 nM in series [3].

Turning to `CN1CCN(c2ccc3cc2/C=C\c2ccc(S(C)(=O)=O)c(c2)Nc2nc(ncc2Cl)N3)CC1` [Example 18, (14Z)-6-Chloro-10-(methanesulfonyl)-17-(4-methylpiperazin-1-yl)-2,4,8,22-tetraazatetracyclo[14.3.1.1^3,7.1^9,13]docosa-1(20),3(22),4,6,9(21),10,12,14,16,18-decaene Trifluoroacetate (1:1)], the IC50 in series [2] (setting [5]) is 101 to 1000 nM; at recombinant human FAK (setting [5]), 10 to 100 nM; in series [3], 10 to 100 nM.

For `O=C1Nc2cccc(c2)Nc2ncc(Cl)c(n2)Nc2cccc1c2` [Example 1, 6,13,19-Triaza-4-chloro-7,14^1,3-dibenzena-1^2,4-pyrimidinacyclodocosaph-12-one], the IC50 was > 10000 nM in series [2] (setting [5]), > 10000 nM at recombinant human FAK (setting [5]) and 101 to 1000 nM in series [3].

Consider `COc1cc(C2CCN(C)CC2)c2cc1Nc1ncc(Cl)c(n1)Nc1cc(ccc1N(C)S(C)(=O)=O)CC2` [Example 8, 6-Chloro-10-(2-methanesulfonyl-methyl-amino)-17-(1-methyl-piperidin-4-yl)-19-methoxy-2,4,8,22-tetraazatetracyclo[14.3.1.1^3,7.1^9,13]docosa-1(20),3(22),4,6,9(21),10,12,16,18-nonaene Trifluoroacetate (1:1)], for which the IC50 in series [1] (setting [5]) is 101 to 1000 nM; in series [2] (setting [5]), < 10 nM; at recombinant human FAK (setting [5]) it was < 10 nM; in series [3], 101 to 1000 nM.
